Data published in patent publication US20250263457A1, “Pharmaceutical Composition for Preventing and Treating Liver Disease Comprising Novel Peptide” (Pusan National University Industry-University Cooperation …, priority 2024, published 2025).

What was measured:
[1] = system: human pHSCs; test: Western blot of HSC activation/inactivation markers in human pHSCs; type: cell-based; details: 40 ng/ml, vs control (FIG. 2C)
Procedure: To confirm the expression of cell activation markers, human pHSCs (5× 10^5 cells/ml) were treated with peptide YJ at a concentration of 20 or 40 ng/ml, and then proteins were extracted and subjected to Western blotting. At this time, as primary antibodies, anti-α-SMA antibody (Sigma-Aldrich, A5228), anti-GAPDH antibody (Bio-rad, MCA4739), anti-GFAP antibody (Dako, z0334), and anti-TFG-β antibody (Cell Signaling Technology, 3711) were used. In addition, as secondary antibodies, Goat anti-mouse IgG F(ab′) 2 antibody (HRP conjugate) (Enzo, ADI-SAB-100-J) and Goat anti-rabbit IgG antibody (HRP conjugate) (Enzo, ADI-SAB-300-J) were used.

[2] = system: alcohol-related liver disease mouse model; test: Inflammatory response (CD68, F4/80 immunohistochemistry) and alcohol metabolism/apoptosis markers (Western blot) in liver tissue of mouse model; type: in vivo, C57BL/6 male mice; details: 3.3 μg/kg i.p. every other day for three weeks, vs vehicle
Source text: To prepare alcohol-related liver disease mice, 8-week-old C57BL/6 male mice were fed with a Lieber DeCarli liquid diet (Dyets, 710260) containing 5% EtOH for 9 weeks, and then injected intraperitoneally with a vehicle (PBS) every other day along with feeding liquid diet for additional 3 weeks. As a control group for the EtOH diet, mice fed with a pair Lieber DeCarli liquid diet (Dyets, 710027) having the same total calories as the EtOH diet were used (FIG. 4A).
Specifically, the liver tissue extracted from the mouse was fixed by treating 10% neutral buffered formalin, and then embedded using paraffin. The liver tissue paraffin block was cut into 4 μm-thick sections to produce tissue section slides. After deparaffinization and hydration processes of the tissue section slides, 3% hydrogen peroxide was treated to block endogenous peroxidase. Then, the section slides were treated with 10 mM sodium citrate buffer (pH 6.0) and heated for 10 minutes or treated with 0.2% pepsin to induce antigen retrieval. To inhibit non-specific binding of antibodies, blocking (Dako, X9090) was performed, and then the primary antibodies were treated and reacted overnight at 4° C. At this time, the primary antibodies used were anti-CD68 antibody (Abcam, ab125212) and anti-F4/80 antibody (Abcam, ab6640). The section slides were washed with TBST and then treated with secondary antibodies and reacted. The secondary antibodies used were EnVision+ Single Reagents (HRP, Rabbit) (Dako, K4003) and Goat anti-rat IgG-heavy and light chain antibodies (HRP conjugated) (BETHYL, A110-105P). Thereafter, the section slides were washed with TBST and treated with 3,3′-diaminobenzidine (DAB) (Dako, K3466) to develop the color. After the color development, the tissues of the section slides were dehydrated, mounted, fixed, and then observed under a microscope.
The alcohol-related liver disease mouse model established by the method of Example 5.1 was administered vehicle (PBS) or peptide YJ (3.3 μg/kg) intraperitoneally every other day for three weeks, and then blood was collected and liver tissue was extracted to confirm the liver disease treatment effect of peptide YJ.
The degree of inflammatory response in the liver tissue extracted from the experimental mice of Example 5.3 was confirmed in the same manner as in Example 5.3.2.
In addition, the expression of alcohol metabolism markers and apoptosis marker proteins was confirmed through Western blot. Western blot was performed in the same manner as in Example 2. At this time, the primary antibodies used were anti-CYP2E1 antibody ([…], ab125212), anti-4HNE antibody (Abcam, ab46545), anti-cleaved caspase-3 antibody (Cell Signaling Technology, 9661s), anti-caspase-3 antibody (Cell Signaling Technology, 9662s), and anti-GADPH antibody.

[3] = EtOH diet group, Western blot (FIG. 6F)

peptide YJ: TSG-6 fragment: core domain RSGKYKLTYAEAKA plus C-terminal extension VCEFEGGHLATYKQLEAARKIGFHVCAAGWMAK (SEQ ID NO: 9); TSG-6 mimetic (RSGKYKLTYAEAKAVCEFEGGHLATYKQLEAARKIGFHVCAAGWMAK; peptide 4)
expression of GFAP (inactivation marker) [1]: increased
expression of activation markers of pHSCs [1]: decreased
expression of CD68 in liver tissue ([2]; EtOH diet group, IHC (FIG. 6E)): significantly reduced
expression of F4/80 in liver tissue ([2]; EtOH diet group, IHC (FIG. 6E)): significantly reduced
expression of 4HNE in liver [2, 3]: did not show a significant difference
expression of CYP2E1 in liver [2, 3]: did not show a significant difference
expression of cleaved caspase-3 (apoptosis marker) in liver ([2]; Western blot (FIG. 6F)): decreased
